According to US6737383B1, “Herbicidal oxadiazolidines” (priority 1999, dated 2004):

Columns and labels:
bedstraw = assay: Test B pre/postemergence bedstraw; format: in vivo, Galium aparine
Procedure, shortened: (§1)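 Test chemicals in a non-phytotoxic solvent mixture with surfactant were sprayed preemergence onto planted seeds and postemergence onto plants 2 to 18 cm tall (1- to 4-leaf stage). After twelve to sixteen days in a greenhouse, injury was visually rated against untreated controls from 0 (no effect) to 10 (complete control).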

blackgrass = assay: Test B pre/postemergence blackgrass; format: in vivo, Alopecurus myosuroides
Procedure, shortened: as §1

surinam grass = assay: Test B pre/postemergence surinam grass; format: in vivo, Brachiaria decumbens
Procedure, shortened: as §1

cocklebur = assay: Test B pre/postemergence cocklebur; format: in vivo, Xanthium strumarium
Procedure, shortened: as §1

corn = assay: Test B pre/postemergence corn; format: in vivo, Zea mays
Procedure, shortened: as §1

crabgrass = assay: Test B pre/postemergence crabgrass; format: in vivo, Digitaria sanguinalis
Procedure, shortened: as §1

rape = assay: Test B pre/postemergence rape; format: in vivo, Brassica napus
Procedure, shortened: as §1

soybean = assay: Test B pre/postemergence soybean; format: in vivo, Glycine max
Procedure, shortened: as §1

sugar beet = assay: Test B pre/postemergence sugar beet; format: in vivo, Beta vulgaris
Procedure, shortened: as §1

velvetleaf = assay: Test B pre/postemergence velvetleaf; format: in vivo, Abutilon theophrasti
Procedure, shortened: as §1

wheat = assay: Test B pre/postemergence wheat; format: in vivo, Triticum aestivum
Procedure, shortened: as §1

wild oat = assay: Test B pre/postemergence wild oat; format: in vivo, Avena fatua
Procedure, shortened: as §1

purple nutsedge = assay: Test B pre/postemergence purple nutsedge; format: in vivo, Cyperus rotundus
Procedure, shortened: as §1

rice = assay: Test B flood test rice; format: in vivo, Oryza sativa
Procedure, shortened: (§2)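 Flood test on plants grown to the 2-leaf stage; treated plants kept in greenhouse twelve to sixteen days, then visually rated against controls on a 0 (no effect) to 10 (complete control) scale.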

smallflower flatsedge = assay: Test B flood test smallflower flatsedge; format: in vivo, Cyperus difformis
Procedure, shortened: as §2

duck salad = assay: Test B flood test duck salad; format: in vivo, Heteranthera limosa
Procedure, shortened: as §2

bamyardgrass = assay: Test B flood test barnyardgrass; format: in vivo, Echinochloa crus-galli
Procedure, shortened: as §2

[1] = Postemergence, Rate 62 g/ha, scale 0 to 10, 0 is no effect, 10 is complete control
[2] = Postemergence, Rate 250 g/ha, scale 0 to 10, 0 no effect, 10 complete control
[3] = Preemergence, Rate 62 g/ha, scale 0 to 10 (0 no effect, 10 complete control)
[4] = Preemergence, Rate 125 g/ha, scale 0 to 10 (0 no effect, 10 complete control)
[5] = Preemergence, Rate 250 g/ha, scale of 0 to 10 where 0 is no effect and 10 is complete control
[6] = Preemergence, Rate 500 g/ha, scale 0 (no effect) to 10 (complete control)
[7] = Rate 125 g/ha, Postemergence, scale 0 to 10, 0 no effect, 10 complete control
[8] = Rate 500 g/ha, Postemergence, scale 0 to 10, 0 no effect, 10 complete control
[9] = Rate 1000 g/ha, Preemergence, scale 0 to 10 (0 no effect, 10 complete control)
[10] = Postemergence, Rate 125 g/ha, scale of 0 to 10 where 0 is no effect and 10 is complete control
[11] = Postemergence, Rate 1000 g/ha, scale 0 to 10 (0 no effect, 10 complete control)
[12] = Rate 62 g/ha, Postemergence, scale of 0 to 10 where 0 is no effect and 10 is complete control
[13] = Rate 250 g/ha, Postemergence, scale 0 to 10, 0 is no effect, 10 is complete control
[14] = Preemergence, Rate 125 g/ha, 0 is no effect, 10 is complete control
[15] = Postemergence (flood test species), Rate 125 g/ha, scale of 0 to 10 where 0 is no effect and 10 is complete control
[16] = Rate 62 g/ha, Postemergence section, flood test species, scale of 0 to 10 where 0 is no effect and 10 is complete control
[17] = Rate 250 g/ha, Postemergence (flood test), scale 0 to 10, 0 is no effect, 10 is complete control
[18] = Rate 500 g/ha, listed under Postemergence (flood test species), scale 0 to 10, 0 no effect, 10 complete control
[19] = flood test, listed under Postemergence, Rate 250 g/ha, scale 0 to 10, 0 no effect, 10 complete control

CC(C)N(C(=O)n1oc(=O)n(C2CCCCC2C(F)(F)F)c1=O)c1ccc(F)cc1 (centres unmarked) [Compound 99]
Bedstraw plant response rating (bedstraw; [1]): 3
Bedstraw plant response rating (bedstraw; [2]): 8
Bedstraw plant response rating (bedstraw; [3]): 0
Plant response rating, Bedstraw (bedstraw; [4]): 0
Plant response rating, Bedstraw (bedstraw; [5]): 0
Bedstraw plant response rating (bedstraw; [6]): 0
Bedstraw plant response rating (bedstraw; [7]): 5
Bedstraw plant response rating (bedstraw; [8]): 8
Plant response rating, Bedstraw (bedstraw; [9]): 0
Blackgrass plant response rating (blackgrass; [10]): 3
Blackgrass plant response rating (blackgrass; [2]): 6
Blackgrass plant response rating (blackgrass; [11]): 5
Blackgrass plant response rating (blackgrass; [3]): 0
Plant response rating, Blackgrass (blackgrass; [4]): 3
Plant response rating, Blackgrass (blackgrass; [5]): 4
Blackgrass plant response rating (blackgrass; [6]): 4
Blackgrass plant response rating (blackgrass; [12]): 3
Blackgrass plant response rating (blackgrass; [8]): 6
Plant response rating, Blackgrass (blackgrass; [9]): 7
B. signalgrass plant response rating (surinam grass; [1]): 0
B. signalgrass plant response rating (surinam grass; [2]): 0
B. signalgrass plant response rating (surinam grass; [11]): 4
B. signalgrass plant response rating (surinam grass; [3]): 0
Plant response rating, B. signalgrass (surinam grass; [4]): 0
Plant response rating, B. signalgrass (surinam grass; [5]): 2
B. signalgrass plant response rating (surinam grass; [6]): 3
B. signalgrass plant response rating (surinam grass; [7]): 0
B. signalgrass plant response rating (surinam grass; Rate 500 g/ha, Postemergence, scale of 0 to 10 where 0 is no effect and 10 is complete control): 2
Plant response rating, B. signalgrass (surinam grass; [9]): 6
Cocklebur plant response rating (cocklebur; [10]): 2
Cocklebur plant response rating (cocklebur; [2]): 2
Cocklebur plant response rating (cocklebur; [11]): 4
Cocklebur plant response rating (cocklebur; [3]): 0
Plant response rating, Cocklebur (cocklebur; [4]): 0
Plant response rating, Cocklebur (cocklebur; [5]): 0
Cocklebur plant response rating (cocklebur; [6]): 0
Cocklebur plant response rating (cocklebur; [12]): 0
Cocklebur plant response rating (cocklebur; [8]): 3
Plant response rating, Cocklebur (cocklebur; [9]): 7
Corn plant response rating (corn; [10]): 0
Corn plant response rating (corn; [2]): 0
Corn plant response rating (corn; [11]): 0
Corn plant response rating (corn; [3]): 0
Plant response rating, Corn (corn; [4]): 0
Plant response rating, Corn (corn; [5]): 0
Corn plant response rating (corn; [6]): 0
Corn plant response rating (corn; [12]): 0
Corn plant response rating (corn; [8]): 0
Plant response rating, Corn (corn; [9]): 2
Crabgrass plant response rating (crabgrass; [10]): 2
Crabgrass plant response rating (crabgrass; [2]): 4
Crabgrass plant response rating (crabgrass; [11]): 8
Crabgrass plant response rating (crabgrass; [3]): 5
Plant response rating, Crabgrass (crabgrass; [4]): 8
Plant response rating, Crabgrass (crabgrass; [5]): 10
Crabgrass plant response rating (crabgrass; [6]): 10
Crabgrass plant response rating (crabgrass; [12]): 0
Crabgrass plant response rating (crabgrass; [8]): 8
Plant response rating, Crabgrass (crabgrass; [9]): 10
Rape plant response rating (rape; [10]): 2
Rape plant response rating (rape; [2]): 4
Rape plant response rating (rape; [11]): 7
Rape plant response rating (rape; [3]): 0
Plant response rating, Rape (rape; [4]): 0
Plant response rating, Rape (rape; [5]): 0
Rape plant response rating (rape; [6]): 3
Rape plant response rating (rape; [12]): 2
Rape plant response rating (rape; [8]): 6
Plant response rating, Rape (rape; [9]): 6
Soybean plant response rating (soybean; [10]): 2
Soybean plant response rating (soybean; [11]): 3
Soybean plant response rating (soybean; [3]): 0
Plant response rating, Soybean (soybean; [4]): 0
Plant response rating, Soybean (soybean; [5]): 0
Soybean plant response rating (soybean; [6]): 0
Soybean plant response rating (soybean; [12]): 2
Plant response rating, Soybean (soybean; [13]): 3
Soybean plant response rating (soybean; [8]): 4
Plant response rating, Soybean (soybean; [9]): 2
Sugarbeets plant response rating (sugar beet; [10]): 4
Sugarbeets plant response rating (sugar beet; [11]): 5
Sugarbeets plant response rating (sugar beet; [3]): 0
Sugarbeets plant response rating (0 to 10 scale) (sugar beet; [14]): 2
Plant response rating, Sugarbeets (sugar beet; [5]): 2
Sugarbeets plant response rating (sugar beet; [6]): 4
Sugarbeets plant response rating (sugar beet; [12]): 2
Plant response rating, Sugarbeets (sugar beet; [13]): 4
Sugarbeets plant response rating (sugar beet; [8]): 5
Plant response rating, Sugarbeets (sugar beet; [9]): 6
Velvetleaf plant response rating (velvetleaf; [10]): 3
Velvetleaf plant response rating (velvetleaf; [11]): 7
Velvetleaf plant response rating (velvetleaf; [3]): 0
Velvetleaf plant response rating (0 to 10 scale) (velvetleaf; [14]): 0
Plant response rating, Velvetleaf (velvetleaf; [5]): 0
Velvetleaf plant response rating (velvetleaf; [6]): 3
Velvetleaf plant response rating (velvetleaf; [12]): 0
Plant response rating, Velvetleaf (velvetleaf; [13]): 3
Velvetleaf plant response rating (velvetleaf; [8]): 5
Plant response rating, Velvetleaf (velvetleaf; [9]): 0
Wheat plant response rating (wheat; [10]): 0
Wheat plant response rating (wheat; [11]): 2
Wheat plant response rating (wheat; [3]): 0
Wheat plant response rating (0 to 10 scale) (wheat; [14]): 0
Plant response rating, Wheat (wheat; [5]): 2
Wheat plant response rating (wheat; [6]): 2
Wheat plant response rating (wheat; [12]): 0
Plant response rating, Wheat (wheat; [13]): 0
Wheat plant response rating (wheat; [8]): 0
Plant response rating, Wheat (wheat; [9]): 2
Wild oats plant response rating (wild oat; [10]): 0
Wild oats plant response rating (wild oat; [11]): 3
Wild oats plant response rating (wild oat; [3]): 0
Wild oats plant response rating (0 to 10 scale) (wild oat; [14]): 3
Plant response rating, Wild oats (wild oat; [5]): 3
Wild oats plant response rating (wild oat; [6]): 5
Wild oats plant response rating (wild oat; [12]): 0
Plant response rating, Wild oats (wild oat; [13]): 0
Wild oats plant response rating (wild oat; [8]): 0
Plant response rating, Wild oats (wild oat; [9]): 7
Nutsedge plant response rating (purple nutsedge; [10]): 0
Nutsedge plant response rating (purple nutsedge; [2]): 0
Nutsedge plant response rating (purple nutsedge; [11]): 0
Nutsedge plant response rating (purple nutsedge; [3]): 0
Plant response rating, Nutsedge (purple nutsedge; [4]): 0
Plant response rating, Nutsedge (purple nutsedge; [5]): 0
Nutsedge plant response rating (purple nutsedge; [6]): 6
Nutsedge plant response rating (purple nutsedge; [12]): 0
Nutsedge plant response rating (purple nutsedge; [8]): 0
Plant response rating, Nutsedge (purple nutsedge; [9]): 10
Rice plant response rating (rice; [15]): 0
Rice plant response rating (rice; [11]): 0
Rice plant response rating (rice; [16]): 0
Plant response rating, Rice (rice; [17]): 0
Rice plant response rating (rice; [18]): 0
S. Flatsedge plant response rating (smallflower flatsedge; [15]): 0
S. Flatsedge plant response rating (smallflower flatsedge; [11]): 3
S. Flatsedge plant response rating (smallflower flatsedge; [16]): 0
Plant response rating, S. Flatsedge (smallflower flatsedge; [17]): 0
S. Flatsedge plant response rating (smallflower flatsedge; [18]): 2
Ducksalad plant response rating (duck salad; [15]): 0
Ducksalad plant response rating (duck salad; [11]): 3
Ducksalad plant response rating (duck salad; [16]): 0
Ducksalad plant response rating (duck salad; [18]): 2
Ducksalad plant response rating (duck salad; [19]): 2
Barnyardgrass plant response rating (bamyardgrass; [1]): 0
Barnyardgrass plant response rating (bamyardgrass; [11]): 8
Barnyardgrass plant response rating (bamyardgrass; Rate 125 g/ha, Postemergence section (flood test species), scale 0 to 10, 0 no effect, 10 complete control): 0
Barnyardgrass plant response rating (bamyardgrass; [18]): 5
Barnyardgrass plant response rating (bamyardgrass; [19]): 0
